Measured values taken from PubChem BioAssay AID270 (DTP/NCI, 2004).
Where “and” joins values, the source holds several entries; their conditions need not be identical. Equal values may be shown once. Records with an inconclusive call do not appear.

Tested on: BDF1 mice, s.c. Lewis lung carcinoma, T/C %
Test: NCI In Vivo Anticancer Drug Screen. Data for tumor model Lewis Lung Carcinoma (subcutaneous) in B6D2F1 (BDF1) mice
Method in brief: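 Tumor-bearing mice were treated with test compound, and either survival or tumor size was recorded. Values are the treated-group measurement divided by that of the vehicle-treated control group.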

[1] = endpoint: median survival time, dose: 2.5 mg/kg/injection, schedule: Q01DX009 (ip), vehicle: saline, higher = longer survival
[2] = endpoint: median survival time, dose: 5.0 mg/kg/injection, schedule: Q01DX009 (ip), vehicle: saline, higher = longer survival
[3] = endpoint: median survival time, dose: 10.0 mg/kg/injection, schedule: Q01DX009 (ip), vehicle: saline, higher = longer survival
[4] = endpoint: median survival time, dose: 0.25 mg/kg/injection, schedule: Q01DX009 (ip), vehicle: saline, higher = longer survival
[5] = endpoint: median survival time, dose: 0.5 mg/kg/injection, schedule: Q01DX009 (ip), vehicle: saline, higher = longer survival
[6] = endpoint: median survival time, dose: 1.0 mg/kg/injection, schedule: Q01DX009 (ip), vehicle: saline, higher = longer survival
[7] = endpoint: mean tumor weight, dose: 200.0 mg/kg/injection, schedule: Q01DX011 (ip), vehicle: carboxymethylcellulose (CMC), higher = larger tumour
[8] = endpoint: median survival time, dose: 6.25 mg/kg/injection, schedule: Q01DX009 (ip), vehicle: Klucel (hydroxypropylcellulose) (HPC), higher = longer survival
[9] = endpoint: median survival time, dose: 12.5 mg/kg/injection, schedule: Q01DX009 (ip), vehicle: Klucel (hydroxypropylcellulose) (HPC), higher = longer survival

## C1=Cc2ccccc2CC1
endpoint: mean tumor weight, dose: 133.0 mg/kg/injection, schedule: Q01DX011 (ip), vehicle: other, higher = larger tumour
  T/C: 121 % of control
endpoint: mean tumor weight, dose: 200.0 mg/kg/injection, schedule: Q01DX011 (ip), vehicle: other, higher = larger tumour
  T/C: 46 % of control
endpoint: mean tumor weight, dose: 300.0 mg/kg/injection, schedule: Q01DX011 (ip), vehicle: other, higher = larger tumour
  T/C: 45 % of control

## O=C(O)CCCc1ccc(N(CCCl)CCCl)cc1
endpoint: mean tumor weight, dose: 3.13 mg/kg/injection, schedule: Q01DX011 (ip), vehicle: saline, higher = larger tumour
  T/C: 66 % of control
endpoint: mean tumor weight, dose: 6.25 mg/kg/injection, schedule: Q01DX011 (ip), vehicle: saline, higher = larger tumour
  T/C: 54 % of control
endpoint: mean tumor weight, dose: 7.5 mg/kg/injection, schedule: Q01DX011 (ip), vehicle: carboxymethylcellulose (CMC), higher = larger tumour
  T/C: 55 % of control
endpoint: mean tumor weight, dose: 12.5 mg/kg/injection, schedule: Q01DX011 (ip), vehicle: saline, higher = larger tumour
  T/C: 26 % of control
endpoint: median survival time, dose: 1.0 mg/kg/injection, schedule: Q01DX009 (ip), vehicle: saline with Tween-80, higher = longer survival
  T/C: 113 % of control
endpoint: median survival time, dose: 2.0 mg/kg/injection, schedule: Q01DX009 (ip), vehicle: saline with Tween-80, higher = longer survival
  T/C: 101 % of control and 124 % of control
endpoint: median survival time, dose: 4.0 mg/kg/injection, schedule: Q01DX001 (ip), vehicle: saline with Tween-80, higher = longer survival
  T/C: 94 % of control
endpoint: median survival time, dose: 8.0 mg/kg/injection, schedule: Q01DX001 (ip), vehicle: saline with Tween-80, higher = longer survival
  T/C: 112 % of control
endpoint: median survival time, dose: 8.0 mg/kg/injection, schedule: Q01DX009 (ip), vehicle: saline with Tween-80, higher = longer survival
  T/C: 110 % of control and 114 % of control
endpoint: median survival time, dose: 16.0 mg/kg/injection, schedule: Q01DX001 (ip), vehicle: saline with Tween-80, higher = longer survival
  T/C: 107 % of control
endpoint: median survival time, dose: 32.0 mg/kg/injection, schedule: Q01DX001 (ip), vehicle: saline with Tween-80, higher = longer survival
  T/C: 89 % of control

## CNC=O
endpoint: mean tumor weight, dose: 250.0 mg/kg/injection, schedule: Q01DX011 (ip), vehicle: saline, higher = larger tumour
  T/C: 67 % of control and 69 % of control
endpoint: mean tumor weight, dose: 500.0 mg/kg/injection, schedule: Q01DX011 (ip), vehicle: saline, higher = larger tumour
  T/C: 10 % of control and 12 % of control

## CCCNC1=C(N2CC2)C(=O)C(NCCC)=C(N2CC2)C1=O
[1]
  T/C: 102 % of control
[2]
  T/C: 112 % of control
[3]
  T/C: 114 % of control

## COc1cccc(/C=N/NC(=O)c2ccccc2N2CCCC2)c1O
endpoint: median survival time, dose: 100.0 mg/kg/injection, schedule: Q01DX009 (ip), vehicle: olive oil, sesame oil, peanut oil, higher = longer survival
  T/C: 90 % of control

## O=NN(CCF)C(=O)NC1CCSCC1
endpoint: median survival time, dose: 2.5 mg/kg/injection, schedule: Q01DX009 (ip), vehicle: saline with Tween-80, higher = longer survival
  T/C: 114 % of control
[1]
  T/C: 103 % of control
endpoint: median survival time, dose: 5.0 mg/kg/injection, schedule: Q01DX009 (ip), vehicle: saline with Tween-80, higher = longer survival
  T/C: 191 % of control
[2]
  T/C: 113 % of control
[3]
  T/C: 204 % of control
endpoint: median survival time, dose: 13.0 mg/kg/injection, schedule: Q04DX004 (ip), vehicle: saline with Tween-80, higher = longer survival
  T/C: 279 % of control
endpoint: median survival time, dose: 18.0 mg/kg/injection, schedule: Q04DX004 (ip), vehicle: saline with Tween-80, higher = longer survival
  T/C: 194 % of control and 345 % of control
endpoint: median survival time, dose: 20.0 mg/kg/injection, schedule: Q01DX009 (ip), vehicle: saline, higher = longer survival
  T/C: 108 % of control
endpoint: median survival time, dose: 23.0 mg/kg/injection, schedule: Q04DX004 (ip), vehicle: saline with Tween-80, higher = longer survival
  T/C: 122 % of control
endpoint: median survival time, dose: 25.0 mg/kg/injection, schedule: Q07DX002 (ip), vehicle: saline with Tween-80, higher = longer survival
  T/C: 190 % of control and 381 % of control
endpoint: median survival time, dose: 39.0 mg/kg/injection, schedule: Q07DX002 (ip), vehicle: saline with Tween-80, higher = longer survival
  T/C: 198 % of control
endpoint: median tumor weight (est.), dose: 14.0 mg/kg/injection, schedule: Q01DX001 (ip), vehicle: saline with Tween-80, higher = larger tumour
  T/C: 53 % of control
endpoint: median tumor weight (est.), dose: 27.0 mg/kg/injection, schedule: Q01DX001 (ip), vehicle: saline with Tween-80, higher = larger tumour
  T/C: 8 % of control

## C(/C=C/C=C/N1CCCCC1)=[N+]1CCCCC1
endpoint: median survival time, dose: 0.13 mg/kg/injection, schedule: Q01DX009 (ip), vehicle: saline, higher = longer survival
  T/C: 101 % of control
[4]
  T/C: 110 % of control
[5]
  T/C: 117 % of control
[6]
  T/C: 110 % of control

## CCCCCCCCCCCCCCCCCCOC(=O)CCSCCC(=O)OCCCCCCCCCCCCCCCCCC
endpoint: mean tumor weight, dose: 133.0 mg/kg/injection, schedule: Q01DX011 (ip), vehicle: carboxymethylcellulose (CMC), higher = larger tumour
  T/C: 117 % of control
[7]
  T/C: 88 % of control
endpoint: mean tumor weight, dose: 300.0 mg/kg/injection, schedule: Q01DX011 (ip), vehicle: carboxymethylcellulose (CMC), higher = larger tumour
  T/C: 101 % of control
endpoint: mean tumor weight, dose: 450.0 mg/kg/injection, schedule: Q01DX011 (ip), vehicle: carboxymethylcellulose (CMC), higher = larger tumour
  T/C: 86 % of control
endpoint: mean tumor weight, dose: 500.0 mg/kg/injection, schedule: Q01DX011 (ip), vehicle: other, higher = larger tumour
  T/C: 165 % of control
endpoint: mean tumor weight, dose: 750.0 mg/kg/injection, schedule: Q01DX011 (ip), vehicle: other, higher = larger tumour
  T/C: 121 % of control

## CCN(CC)c1nc(N(CC)CC)nc(N(CC)CC)n1
endpoint: median survival time, dose: 25.0 mg/kg/injection, schedule: Q01DX009 (ip), vehicle: saline with Tween-80, higher = longer survival
  T/C: 95 % of control
endpoint: median survival time, dose: 50.0 mg/kg/injection, schedule: Q01DX009 (ip), vehicle: saline with Tween-80, higher = longer survival
  T/C: 105 % of control
endpoint: median survival time, dose: 100.0 mg/kg/injection, schedule: Q01DX009 (ip), vehicle: saline with Tween-80, higher = longer survival
  T/C: 95 % of control
endpoint: median survival time, dose: 200.0 mg/kg/injection, schedule: Q01DX009 (ip), vehicle: saline with Tween-80, higher = longer survival
  T/C: 104 % of control
endpoint: median survival time, dose: 400.0 mg/kg/injection, schedule: Q01DX009 (ip), vehicle: saline with Tween-80, higher = longer survival
  T/C: 89 % of control

## CCC1NC(=O)C(NC(=O)c2ncccc2O)C(C)OC(=O)C(c2ccccc2)NC(=O)C2CC(=O)CCN2C(=O)C(Cc2ccccc2)N(C)C(=O)C2CCCN2C1=O (configuration not stated) (tested in a mixture with another compound)
endpoint: median survival time, dose: 9.4 mg/kg/injection, schedule: Q01DX009 (ip), vehicle: Klucel (hydroxypropylcellulose) (HPC), higher = longer survival
  T/C: 102 % of control
endpoint: median survival time, dose: 18.75 mg/kg/injection, schedule: Q01DX009 (ip), vehicle: Klucel (hydroxypropylcellulose) (HPC), higher = longer survival
  T/C: 87 % of control
endpoint: median survival time, dose: 37.5 mg/kg/injection, schedule: Q01DX009 (ip), vehicle: Klucel (hydroxypropylcellulose) (HPC), higher = longer survival
  T/C: 94 % of control

## O=[N+]([O-])c1ccc(Cl)c2c([N+](=O)[O-])cccc12
[8]
  T/C: 118 % of control
[9]
  T/C: 114 % of control
endpoint: median survival time, dose: 50.0 mg/kg/injection, schedule: Q01DX009 (ip), vehicle: Klucel (hydroxypropylcellulose) (HPC), higher = longer survival
  T/C: 103 % of control
endpoint: median survival time, dose: 100.0 mg/kg/injection, schedule: Q01DX009 (ip), vehicle: Klucel (hydroxypropylcellulose) (HPC), higher = longer survival
  T/C: 111 % of control

## CC[C@@H]1O[C@@H]([C@@H]2CC[C@](O)([C@]3(C)CC[C@@H]([C@@H](C)[C@@]4(O)CC[C@H](C)[C@@H](C[C@@]5(O)O[C@@H]([C@@H](C)[C@H](O)C[C@H]6CC[C@H](C)[C@@H]([C@@H](C)C(=O)O)O6)CC[C@@H]5C)O4)O3)O2)CC[C@@]1(C)O
endpoint: median survival time, dose: 0.12 mg/kg/injection, schedule: Q01DX009 (ip), vehicle: saline, higher = longer survival
  T/C: 106 % of control
[4]
  T/C: 110 % of control
[5]
  T/C: 106 % of control
[6]
  T/C: 97 % of control

## COc1cc2c[n+](C)c3c4cc5c(cc4ccc3c2cc1OC)OCO5
endpoint: median survival time, dose: 5.0 mg/kg/injection, schedule: Q01DX009 (ip), vehicle: water, higher = longer survival
  T/C: 103 % of control
endpoint: median survival time, dose: 10.0 mg/kg/injection, schedule: Q01DX009 (ip), vehicle: water, higher = longer survival
  T/C: 107 % of control
endpoint: median survival time, dose: 20.0 mg/kg/injection, schedule: Q01DX009 (ip), vehicle: water, higher = longer survival
  T/C: 87 % of control

## O=C1C2C3C=CC(C3)C2C(=O)N1c1nccs1 (configuration not stated)
endpoint: mean tumor weight, dose: 50.0 mg/kg/injection, schedule: Q01DX011 (ip), vehicle: carboxymethylcellulose (CMC), higher = larger tumour
  T/C: 113 % of control
endpoint: mean tumor weight, dose: 100.0 mg/kg/injection, schedule: Q01DX011 (ip), vehicle: carboxymethylcellulose (CMC), higher = larger tumour
  T/C: 100 % of control
[7]
  T/C: 45 % of control

## CSc1ncnc2c1ncn2C1CCCO1 (configuration not stated)
endpoint: mean tumor weight, dose: 10.0 mg/kg/injection, schedule: Q01DX011 (ip), vehicle: other, higher = larger tumour
  T/C: 103 % of control
endpoint: mean tumor weight, dose: 20.0 mg/kg/injection, schedule: Q01DX011 (ip), vehicle: other, higher = larger tumour
  T/C: 53 % of control
endpoint: mean tumor weight, dose: 40.0 mg/kg/injection, schedule: Q01DX011 (ip), vehicle: other, higher = larger tumour
  T/C: 68 % of control
endpoint: mean tumor weight, dose: 80.0 mg/kg/injection, schedule: Q01DX011 (ip), vehicle: other, higher = larger tumour
  T/C: 86 % of control

## Nc1ccc2nc3ccc(N)cc3[n+](-c3ccccc3)c2c1
endpoint: median survival time, dose: 2.0 mg/kg/injection, schedule: Q01DX009 (ip), vehicle: saline, higher = longer survival
  T/C: 88 % of control

## Cc1cc(N(CC(C)Br)CC(C)Br)ccc1N=Nc1ccccc1C(=O)O (configuration not stated)
endpoint: median survival time, dose: 3.12 mg/kg/injection, schedule: Q01DX009 (ip), vehicle: saline with Tween-80, higher = longer survival
  T/C: 108 % of control
endpoint: median survival time, dose: 6.25 mg/kg/injection, schedule: Q01DX009 (ip), vehicle: saline with Tween-80, higher = longer survival
  T/C: 95 % of control and 102 % of control

## C=C1C(=O)OC2C3OC(C)(CCC(O)C3COC(C)=O)CC(OC(=O)/C(=C/C)COC(C)=O)C12 (configuration not stated)
endpoint: median survival time, dose: 3.12 mg/kg/injection, schedule: Q01DX009 (ip), vehicle: Klucel (hydroxypropylcellulose) (HPC), higher = longer survival
  T/C: 107 % of control
endpoint: median survival time, dose: 3.13 mg/kg/injection, schedule: Q01DX009 (ip), vehicle: Klucel (hydroxypropylcellulose) (HPC), higher = longer survival
  T/C: 101 % of control
[8]
  T/C: 101 % of control
[9]
  T/C: 114 % of control
endpoint: median survival time, dose: 25.0 mg/kg/injection, schedule: Q01DX009 (ip), vehicle: Klucel (hydroxypropylcellulose) (HPC), higher = longer survival
  T/C: 106 % of control
